For series [1], the system named is motor activity of the rat. The series is described as follows: Effects on the motor activity of the rat. The class given is in vivo. The note with it: i.p., first half hour after administration. On the procedure: Utilizing these preliminary goods results, the effects of said compounds were studied on the rats motor activity. This experiment permits to obtain a more objective evaluation about the effectiveness of the tested molecules, confirming and specifying the effective dosages, start and duration of the effects.
For these tests too, rats were subdvided into two groups: a control group of rats treated with the solvent and a positive control group consisting of rats treated i.p. with 300 mg/kg/2 ml GHB sodium salt in the aforesaid solvent.
GHB was systematically used as a reference: when administered at the above doses its motor reducing action spans a wide variation range.
Table 3—Effects on the Motor Activity Produced by Some Benzylamido Derivatives of GHB Compared With a 300 mg/kg Dose of GHB (Sedative Dose)
The following table reports data referred to the first half hour after administration. The per cent decreases in motor activity in respect of GHB are reported.

The subject of series [2] is rats. The series is described as follows: General neuropharmacological profile: behaviour observation (excitation, bursts, sedation) after i.p. administration. It is filed as in vivo. The following applies: rat; for Neuropharmacological profile: different dosage levels; for Potency compared with GHB / Duration of action compared with GHB: excitatory effects. The method, then:
The tests, which were intended to evaluate the neuropharmacological activity of the amides of the invention, were conducted on rats, because most of the data available in the literature concern said animal species.
The time at which the effects started, their intensity and duration were recorded.
Molecules were evaluated by systematically using a control group, in which rats had been treated with the utilized solvent, and a positive control group, in which rats had been treated intraperitoneally (i.p.) with a standard dose of GHB sodium salt (100 mg/kg) in 2 ml. GHB and the assayed amides were administered in 50% DMSO in distilled water.
Said dose of drug, used as a reference, produced typical excitatory effects, characterized by the onset of generic excitation accompanied by more particular paroxysms, the so-called BURSTS of excitation.
Generic excitation was characterized by an increased motor activity, extremely sharp and jerky movements, higher reactivity and shakes.
“Bursts” of excitation were typical and well recognizable: the animals fought and frantically pursued each other.
Recordings concerned the number of “bursts”, the time of their onset after treatment, their intensity, the partial or total involvement of treated animals, the duration of the single episodes.
The sedation produced by higher doses of the molecules examined was evaluated analogously: time of onset, degree of sedation, partial or total involvement, duration of the effects.
Table 2—General Neuropharmacological Profile of Benzylamido Derivatives of GHB Compared With a 100 mq/kg Dose of GHB (Excitatory Dose)

For series [3] the following is noted: cited from earlier work.

In the case of `Cc1ccc(CNC(=O)CCCO)cc1` [Compound 5)], the “< % (per cent decrease in motor activity)” value in series [1] (dose 300 mg/kg) came out at 77%. In addition, in series [2], the “Potency (dose) and duration of action compared with GHB” value (from here on “Potency … of action compared with GHB”) is “substantially superimposable to GHB acid”; the Neuropharmacological profile result is “biphasic neuropharmacological profile”. For the same molecule, the “Dosage required for excitatory effects” value in series [2] (GHB reference excitatory dose 100 mg/kg) turned out to be 100 mg/kg. Also, the “Excitatory effects Start” value in series [2] (dose 100 mg/kg) turned out to be 20 min.

`O=C(CCCO)NCc1cccnc1` [Compound 9)]: the “< % (per cent decrease in motor activity)” value in series [1] (dose 300 mg/kg) was 72%. Further, the “< % (per cent decrease in motor activity)” value in series [1] (dose 100-200 mg/kg) is on record as 0%. In series [2] (dose 100 mg/kg), the “Excitatory effects Duration” value is listed as 15 min and the “Excitatory effects Start” value was found to be 60 min.

With `Nc1ccc(CNC(=O)CCCO)cc1` [Compound 3)], in series [2], the Neuropharmacological profile result was “biphasic neuropharmacological profile” and the “Potency compared with GHB” value is “more powerful than GHB”. In series [2] (dose 25-50 mg/kg), the “Excitatory effects Duration” value stood at 60 min and the “Excitatory effects Start” value came to 30 min.

`O=C(CCCO)NCc1ccc(Cl)cc1` [Compound 4)]: the “< % (per cent decrease in motor activity)” value in series [1] (dose 100 mg/kg) turned out to be 0%. Further, the “< % (per cent decrease in motor activity)” value in series [1] (dose 300 mg/kg) is reported as 80%. In series [2] (dose 50-100 mg/kg), the “Excitatory effects Duration” value is 45 min and the “Excitatory effects Start” value is recorded as 30 min.

Consider `COCCCC(=O)NCc1ccc(Cl)cc1` [Compound 11)], for which the “< % (per cent decrease in motor activity)” value in series [1] (dose 100 mg/kg) is 70%. Moreover, in series [2], the Neuropharmacological profile result is reported as “biphasic neuropharmacological profile” and the “Potency compared with GHB” value is on record as “more powerful than GHB”. In addition, in series [2] (dose 25-50 mg/kg), the “Excitatory effects Duration” value stood at 60 min and the “Excitatory effects Start” value is 20 min.

With `CCCOCCCC(=O)NCc1ccc(C)cc1` [Compound 13)], the “< % (per cent decrease in motor activity)” value in series [1] (dose 100 mg/kg) is recorded as 58%. Moreover, the Neuropharmacological profile result in series [2] is reported as “biphasic neuropharmacological profile”. Besides, in series [2] (dose 100 mg/kg), the “Excitatory effects Duration” value amounted to 30 min and the “Excitatory effects Start” value amounted to 45 min.

For the molecule `COc1ccc(CNC(=O)CCCO)cc1` [Compound 6)], in series [1] (dose 300 mg/kg), the “< % (per cent decrease in motor activity)” value is 57%. Further, in series [2] (dose 25-50 mg/kg), the “Excitatory effects Duration” value is 45 min and the “Excitatory effects Start” value was determined as 45 min.

Consider `O=C(O)CCCO` [GHB, γ-hydroxybutyric acid], for which the “Maximum concentration peak, time after administration” value in series [3] (absorption by the gastroenteric apparatus) was 35 to 40 min. In series [3] (in vivo), the Half-life time was 20 to 25 min. Also, in series [2] (GHB reference), the “Duration of action (excitatory effects)” value was determined as 1 h. Moreover, the Neuropharmacological profile entry in series [2] is “causes excitation at relatively low doses and sedation at higher doses”.

For `COCCCC(=O)NCc1ccccc1` [Compound 10)], in series [1] (dose 100 mg/kg), the “< % (per cent decrease in motor activity)” value is listed as 42%. In addition, in series [2], the Neuropharmacological profile result is reported as “biphasic neuropharmacological profile” and the “Potency compared with GHB” value is “more powerful than GHB”. In series [2] (dose 25-50 mg/kg), the “Excitatory effects Duration” value came out at 30 min and the “Excitatory effects Start” value worked out at 20 min.

Turning to `COc1cc(CNC(=O)CCCO)cc(OC)c1` [Compound 8)], the “< % (per cent decrease in motor activity)” value in series [1] (dose 300 mg/kg) turned out to be 68%. For the same molecule, in series [2] (dose 100 mg/kg), the “Excitatory effects Duration” value was found to be 30 min and the “Excitatory effects Start” value was found to be 60 min.

For the molecule `CCOCCCC(=O)NCc1ccc(C)cc1` [Compound 12)], in series [1] (dose 100 mg/kg), the “< % (per cent decrease in motor activity)” value stood at 54.5%. Moreover, in series [2], the Neuropharmacological profile result is recorded as “biphasic neuropharmacological profile” and the “Potency compared with GHB” value is recorded as “more powerful than GHB”. Also, in series [2] (dose 25-50 mg/kg), the “Excitatory effects Duration” value is on record as 30 min and the “Excitatory effects Start” value came to 60 min.

As to `CCCNC(=O)CCCO` [Compound 2)], in series [1] (dose 300 mg/kg), the “< % (per cent decrease in motor activity)” value amounted to 82%.

For the molecule `COCCCC(=O)NCc1cccc2ccccc12` [Compound 14)], the “< % (per cent decrease in motor activity)” value in series [1] (dose 50 mg/kg) is listed as 65%. The “< % (per cent decrease in motor activity)” value in series [1] (dose 100 mg/kg) turned out to be 75%. In addition, in series [2], the “Potency … of action compared with GHB” value is given as “better than those of GHB”; the Neuropharmacological profile result is given as “biphasic neuropharmacological profile”; the “Duration of action compared with GHB” value was “longer duration of action”; the “Potency compared with GHB” value is recorded as “more powerful than GHB”. Further, in series [2] (dose 25-50 mg/kg), the “Excitatory effects Duration” value worked out at 180 min and the “Excitatory effects Start” value was 30 min.

As for `COCCCC(=O)NCc1ccc(C)cc1` [Compound 7)], the “< % (per cent decrease in motor activity)” value in series [1] (dose 100 mg/kg) was found to be 76%. In series [2], the “Potency … of action compared with GHB” value is recorded as “better than those of GHB”; the Neuropharmacological profile result is given as “biphasic neuropharmacological profile”; the “Duration of action compared with GHB” value is on record as “longer duration of action”; the “Potency compared with GHB” value is “more powerful than GHB”. For the same molecule, the “Excitatory effects Start” value in series [2] (dose 25-50 mg/kg) was 20 min.

Regarding `COCCCC(=O)NCc1ccc(C(F)(F)F)cc1` [Compound 15)], the “< % (per cent decrease in motor activity)” value in series [1] (dose 25-50 mg/kg) was found to be 64%. Further, in series [2], the “Potency … of action compared with GHB” value is “better than those of GHB”; the Neuropharmacological profile result is recorded as “biphasic neuropharmacological profile”; the “Duration of action compared with GHB” value is on record as “longer duration of action”; the “Potency compared with GHB” value is on record as “more powerful than GHB”. Besides, the “Excitatory effects Start” value in series [2] (dose 25-50 mg/kg) came to 20 min.

Values taken from patent US6770784B2, “Use of γ-hydroxybutyric acid amides in the treatment of drug addiction and in particular of alcoholism” (Laboratorio Farmaceutico C.T. S.r.l., priority 1996, dated 2004).
